Like-named read-outs stand apart in the source and are kept apart here.
What was measured:
[1] = system: maximum electroshock spasm (MES) in male mice (NMRI); assay: MES test (maximum electroshock spasm), inhibition of the extensor spasm; format: in vivo; conditions: Mus musculus; for responders at 100 mg/kg / responders at 50 mg/kg: read-out: protective action after 1 hr. (MES test); for ED50: read-out: ED 50 in the MES test; for responders at 50 mg/kg: 50 mg/kg p.o.
[2] = Neurotoxicity observation (motility, muscle tonus, respiratory frequency, body temperature, general behaviour); set-up: species or system mice (NMRI); conditions: mouse, in vivo, po
Protocol: During the above-described experiments, the animals were observed during the whole of the experimental period (up to 4 hours) for signs of substance-caused changes of behaviour and neurotoxicity (motility, muscle tonus, respiratory frequency, body temperature and general behaviour).

rats = assay: Orientating toxicological investigations on rats; format: in vivo; conditions: up to an oral dosage of 1000 mg./kg.
[3] = po, 100 mg/kg p.o., mice, 1 hr., % of animals protected 100% against the extensor spasm
[4] = oral, mice, 1 hour after administration
[5] = read-out: Neurotoxic limiting dose in the mouse

In the case of `CCC1(C)CC(=O)NC1=O` (centres unmarked) [Ethosuximide, reference compound], the responders at 100 mg/kg [1, 3] was 0%, the ED50 [1, 4] was greater than 250 mg/kg and the TD50 [2] was 500 mg/kg.
Work on `CCCC(CCC)C(=O)O` [valproic acid, reference compound] yielded an ED50 ([1]; ip, 1 h) of 205 mg/kg, a responders at 100 mg/kg ([1]; po, 1 h) of 0% and a TD50 [2, 5] of 350 mg/kg.
In the case of `COC1=CC(=O)O[C@H]1[C@H](O)c1ccccc1Cl` (relative stereo) [Example 64, threo-5-(2-chlorophenylhydroxymethyl)-4-methoxy-2(5H)-furanone], the responders at 100 mg/kg [1, 3] was 100%, the ED50 [1, 4] was 19.8 mg/kg and the mortality of rats (rats) was “no mortality of the animals”.
For `COC1=CC(=O)O[C@H]1[C@H](O)c1cc(Cl)ccc1Cl` (relative stereo) [Example 81, threo-5-(2,5-dichlorophenylhydroxymethyl)-4-methoxy-2(5H)-furanone], the responders at 100 mg/kg [1, 3] was 100%, the ED50 [1, 4] was 19.5 mg/kg and the mortality of rats (rats) was “no mortality of the animals”.
In the case of `CCC1(c2ccccc2)C(=O)NC(=O)NC1=O` [phenobarbital, reference compound], the ED50 ([1]; po, 1 h) was 19.2 mg/kg, the responders at 100 mg/kg ([1]; po, 1 h) was 100% and the TD50 [2, 5] was 60 mg/kg.
In the case of `NC(=O)N1c2ccccc2C=Cc2ccccc21` [carbamazepine, reference compound], the responders at 50 mg/kg ([1]; po, mice, 1 hr.) was 100%, the ED50 [1, 4] was 14.6 mg/kg and the TD50 [2] was 100 mg/kg.
In the case of `CCCC(C)C1(CC)C(=O)NC(=O)NC1=O` (centres unmarked) [pentobarbital, reference compound], the ED50 ([1]; sc, 1 h) was 35.2 mg/kg and the TD50 [2, 5] was 60 mg/kg.
In the case of `COC1=CC(=O)O[C@H]1[C@H](O)c1ccc(Cl)cc1Cl` (relative stereo) [Example 79, threo-5-(2,4-dichlorophenylhydroxymethyl)-4-methoxy-2(5H)-furanone], the responders at 100 mg/kg [1, 3] was 60%, the ED50 [1, 4] was 82.5 mg/kg and the mortality of rats (rats) was “no mortality of the animals”.
Molecule `O=C1NC(=O)C(c2ccccc2)(c2ccccc2)N1` [diphenylhydantoin, reference compound] has an ED50 ([1]; 1 h, (4 h), mice) of 9.1 mg/kg, a responders at 50 mg/kg ([1]; po, mice, 1 hr.) of 100% and a TD50 [2] of 100 mg/kg.
For `COC1=CC(=O)O[C@H]1[C@H](O)c1ccccc1` (relative stereo) [Example 65, threo-4-methoxy-5-phenylhydroxymethyl-2(5H)-furanone], the responders at 100 mg/kg [1, 3] was 79%, the ED50 [1, 4] was 69 mg/kg and the mortality of rats (rats) was “no mortality of the animals”.
In the case of `COC1=CC(=O)O[C@H]1[C@H](O)c1cccc(Cl)c1` (relative stereo) [Example 98, threo-5-(3-chlorophenylhydroxymethyl)-4-methoxy-2(5H)-furanone], the responders at 100 mg/kg [1, 3] was 25% and the ED50 [1, 4] was 84.5 mg/kg.
Work on `CCOC1=CC(=O)O[C@H]1[C@H](O)c1ccc(Cl)cc1Cl` (relative stereo) [Example 80, threo-5-(2,4-dichlorophenylhydroxymethyl)-4-ethoxy-2(5H)-furanone] yielded a responders at 100 mg/kg [1, 3] of 90%.

Source: patent US4855320A, “5-arylalkyl-4-alkoxy-2(5H)-furanones, intermediates and processes for the preparation thereof and medicaments containing them” (Dr. Willmar Schwabe GmbH & Company, priority 1986, dated 1989)
